Test results: patent US20240246960A1 (adMare Therapeutics Society, priority 2021, published 2024)
Where two headings read alike, the source gives them in different places.

Experiments:
HCT116 spheroids = test: Spheroid + radiation colony forming cell survival assay (SF), HCT116; format: cell-based; details: 8 Gy
Experimental: (§1) Multicellular tumour spheroids determination of compound inhibition of pDNA-PK induction following radiation. Tumour spheroids were grown to approximately 0.5 mm in diameter and irradiated with 20 Gy in combination with inhibitor test compounds to determine their potency. Inhibitor concentration for 50% reduction in pDNA-PK induction (IC50) was determined via immunohistochemical staining in spheroid cryosections taken 2 hours following radiation. For cell survival endpoint 8 Gy radiation was used and 3 hours following radiation spheroids were dissociated, counted and plated for colony forming endpoint.
Spheroid+radiation colony forming cell survival assay (SF). Radiation 8 Gy. Drug: serial dilution 5 μM down to 10 nM (12 wells×2 repeat). Spheroids: 5-10 spheroids per well ([…]). HCT116. 5% O2 and 5% CO2. 96 well pate format for assay. Protocol: pre incubate 1 hour with drug, irradiate 8 Gy, post incubate 3 hrs with drug, dissociate spheroids and count cells and plate for colony forming assay. Endpoint: wait 4-7 days and count colonies. Analysis: determine EC50 concentration that increase cell kill by 50% over radiation alone.
(§2) Multicellular tumour spheroids were used to determine potency of test compounds in a 3D tissue environment using inhibition of pDNA-PK induction following radiation or cell survival as the endpoint. For the pDNA-PK endpoint HCT116 or FaDU tumour spheroids were grown to approximately 0.5 mm in diameter and irradiated with 20 Gy in combination with inhibitor test compounds to determine their potency. Experiments were carried out in 96 well plates containing 0.7 mls of MEM media containing 10% FBS and 10 mM glucose under 20% O2 & 5% CO2 at 37° C. Following dilution of compounds 1:1000 from DMSO stocks, compounds were serially diluted from 10 μM down to 3.5 nM and 5-10 spheroids added. 96 well plates were constantly stirred to avoid spheroids settling during the course of the experiment. The inhibitor concentration for 50% reduction in pDNA-PK induction (EC50) was determined via immunohistochemical staining in spheroid cryosections taken 2 hours following radiation using anti-pDNA-PK (ser 2056) and fixed immediately in formalin following sectioning. For cell survival endpoint 8 Gy radiation was used and, 3 hours following radiation, spheroids were dissociated, counted and plated for colony forming endpoint. Data presented in the table compound potency as EC50 [μM].

[1] = biological target: T1, pDNA-PK ser2056 induction in FaDU spheroids (Homo sapiens, UniProt P78527); test: Multicellular tumour spheroid + radiation, pDNA-PK inhibition, FaDU; format: cell-based; details: 20 Gy
T1 construct: host or cells: FaDu
Experimental: as §1
Spheroid+radiation pDNA-PK. Radiation: 20 Gy. Drug: serial dilution 5 or 10 μM down to 3.5 nM (11 wells). Spheroids: 3-6 spheroids per well (300-500 μm diameter). 20% O2 and 5% CO2. 96 well plate format. Endpoint: fluorescent immunostain pDNA-PK ser2056 and image on microscope. Analysis: determine EC50 concentrations that decreases pDNA-PK induction […] after irradiation.
as §2

[2] = biological target: T2, DNA-PK phosphorylation at Serine 2056 (Homo sapiens, UniProt P78527); test: Cellular Assay for Inhibition of DNA-PK Phosphorylation at Serine 2056 (FaDu cells, neocarzinostatin, sandwich ELISA); format: cell-based; details: Table 1
T2 construct: host or cells: FaDu
In short: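 Readout was pSer2056 and total DNA-PK, measured by sandwich ELISA on protein-normalized lysates. Prior to lysis, compound was applied to FaDu cells for 1 h (0.3% DMSO), followed by 2 h of 1 μg/mL neocarzinostatin. IC50 values were fitted from log concentration versus % inhibition normalized to DMSO and NCS controls.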

[3] = Microsomal stability assay, mouse liver microsomes; details: for microsomal CLint at 0.1 uM: male, CD-1, mouse, liver microsomes, pH 7.4, Microsomal Stability Mouse Clint, 0.1 mg/mL microsomes, 0.1 uM compound
Experimental: Mouse liver microsomes were obtained from a pool of 250 or more male CD-1 mice. […] Final microsomal concentration was 0.1 mg/mL and test compound concentration was 0.1 uM with a maximum of 0.01% DMSO. The test compound was pre-incubated with pooled liver microsomes in phosphate buffer (pH 7.4) for 5 min in a 37° C. shaking water bath. The reaction was initiated by adding NADPH-generating system and incubated for 0, 15, 30, 45, and 60 min. The reaction was stopped by transferring the incubation mixture to acetonitrile/methanol. Samples were then mixed and centrifuged. Supernatants were used for HPLC-MS/MS analysis. The HPLC system consisted of a binary LC pump with autosampler, a C-18 column, and a gradient. Peak areas corresponding to the test compound were recorded. The compound remaining was calculated by comparing the peak area at each time point to time zero. The half-life was calculated from the slope of the initial linear range of the logarithmic curve of compound remaining (%) vs. time, assuming first order kinetics. In addition, the intrinsic clearance (Clint) was calculated from the half-life.

[4] = Hepatocyte stability assay, mouse hepatocytes; format: in vitro ADME; details: for hepatocyte CLint at 1 uM: male, CD-1, mouse, cryopreserved hepatocytes, pH 7.3, 0.7 million cells per mL, 1 uM compound
In short: (§3)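 Pooled cryopreserved hepatocytes (male CD-1 mouse, or mixed-gender human donors; ≥10 each) at 0.7 million viable cells/mL in Krebs-Henseleit buffer pH 7.3, with 1 uM compound (≤0.01% DMSO). Incubated up to 2 h at 37 °C/5% CO2, quenched with acetonitrile; parent compound followed by HPLC-MS/MS peak area.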

[5] = Hepatocyte stability assay, human hepatocytes; format: in vitro ADME; details: for hepatocyte CLint at 1 uM: both sexes, human, cryopreserved hepatocytes, pH 7.3, 0.7 million cells per mL, 1 uM compound
In short: as §3

[6] = Example 8, spheroid, read-out: Cell line: HCT116 Colony forming endpoint Surviving Fraction EC50
[7] = Example 9 Study 2, read-out: Spheroid Cell line: HCT116 Colony forming endpoint Surviving Fraction EC50
[8] = Example 8, spheroid, read-out: Cell line: FaDU Immunohistochemical endpoint pDNA-PK inhibition EC50
[9] = Example 9 Study 2, 20% O2, read-out: Spheroid Cell line: FaDU Immunohistochemical endpoint pDNA-PK inhibition EC50

Fc1cn([C@H]2CC[C@@H](Oc3nc(N4CCOCC4)cc4ncccc34)CC2)cn1 [Compound 17a, 4-(5-(((1s,4s)-4-(4-fluoro-1H-imidazol-1-yl)cyclohexyl)oxy)-1,6-naphthyridin-7-yl)morpholine]
EC50 (HCT116 spheroids; [6]): 10 to 500 nM | EC50 (HCT116 spheroids; [7]): 10 to 500 nM | EC50 [1, 8]: 500 to 1000 nM | EC50 [1, 9]: 500 to 1000 nM | IC50 [2]: < 100 nM | Microsomal Stability (mouse) % rem. 60 min [3]: E (% remaining = 0-25%) | microsomal CLint at 0.1 uM [3]: > 116 µL/min/mg

Cc1nc(C(F)(F)F)cn1[C@H]1CC[C@@H](Oc2nc(N3CCOCC3)cc3ncccc23)CC1 [Compound 17i, 4-(5-(((1s,4s)-4-(2-methyl-4-(trifluoromethyl)-1H-imidazol-1-yl)cyclohexyl)oxy)-1,6-naphthyridin-7-yl)morpholine]
EC50 (HCT116 spheroids; [6]): 10 to 500 nM | EC50 (HCT116 spheroids; [7]): 10 to 500 nM | EC50 [1, 8]: 500 to 1000 nM | EC50 [1, 9]: 500 to 1000 nM | IC50 [2]: 100 to 1000 nM

FC(F)(F)c1cncn1[C@H]1CC[C@@H](Oc2nc(N3CCOCC3)cc3ncccc23)CC1 [Compound 17j, 4-(5-(((1s,4s)-4-(5-(trifluoromethyl)-1H-imidazol-1-yl)cyclohexyl)oxy)-1,6-naphthyridin-7-yl)morpholine]
EC50 (HCT116 spheroids; [6]): 500 to 1000 nM | EC50 (HCT116 spheroids; [7]): 500 to 1000 nM | EC50 [1, 8]: 500 to 1000 nM | EC50 [1, 9]: 500 to 1000 nM | IC50 [2]: 100 to 1000 nM | Microsomal Stability (mouse) % rem. 60 min [3]: E (% remaining = 0-25%) | microsomal CLint at 0.1 uM [3]: > 116 µL/min/mg

Oc1cnc2cc(N3CCOCC3)nc(O[C@H]3CC[C@@H](Nc4ncccn4)CC3)c2c1 [Compound 19a, 7-Morpholino-5-(((1s,4s)-4-(pyrimidin-2-ylamino)cyclohexyl)oxy)-1,6-naphthyridin-3-ol]
EC50 (HCT116 spheroids; [6]): 500 to 1000 nM | EC50 (HCT116 spheroids; [7]): 500 to 1000 nM | EC50 [1, 8]: 500 to 1000 nM | EC50 [1, 9]: 500 to 1000 nM | IC50 [2]: < 100 nM | Microsomal Stability (mouse) % rem. 60 min [3]: F (% remaining = 25-50%) | microsomal CLint at 0.1 uM [3]: > 116 µL/min/mg

CCOCCOc1cnc(N[C@H]2CC[C@@H](Oc3nc(N4CCOCC4)cc4ncc(O)cc34)CC2)nc1 [Compound 19b, 5-(((1s,4s)-4-((5-(2-Ethoxyethoxy)pyrimidin-2-yl)amino)cyclohexyl)oxy)-7-morpholino-1,6-naphthyridin-3-ol]
EC50 (HCT116 spheroids; [6]): 10 to 500 nM | EC50 (HCT116 spheroids; [7]): 10 to 500 nM | EC50 [1, 8]: 500 to 1000 nM | EC50 [1, 9]: 500 to 1000 nM | IC50 [2]: 100 to 1000 nM

COc1cnc(N[C@H]2CC[C@@H](Oc3nc(N4CCOCC4)cc4ncc(O)cc34)CC2)nc1 [Compound 19c, 5-(((1s,4s)-4-((5-Methoxypyrimidin-2-yl)amino)cyclohexyl)oxy)-7-morpholino-1,6-naphthyridin-3-ol]
EC50 (HCT116 spheroids; [6]): 10 to 500 nM | EC50 (HCT116 spheroids; [7]): 10 to 500 nM | EC50 [1, 8]: 500 to 1000 nM | EC50 [1, 9]: 500 to 1000 nM | IC50 [2]: < 100 nM

FC(F)Oc1cnc(N[C@H]2CC[C@@H](Oc3nc(N4CCOCC4)cc4ncccc34)CC2)nc1 [Compound 35, 5-(Difluoromethoxy)-N-((1s,4s)-4-((7-morpholino-1,6-naphthyridin-5-yl)oxy)cyclohexyl)pyrimidin-2-amine]
EC50 (HCT116 spheroids; [6]): 1000 to 10000 nM | EC50 (HCT116 spheroids; [7]): 1000 to 10000 nM | IC50 [2]: < 100 nM | Microsomal Stability (mouse) % rem. 60 min [3]: E (% remaining = 0-25%) | microsomal CLint at 0.1 uM [3]: > 116 µL/min/mg

O=C(N[C@H]1CC[C@@H](Oc2nc(N3CCOCC3)cc3ncccc23)CC1)c1ccnnc1 [Compound 121, N-((1s,4s)-4-((7-morpholino-1,6-naphthyridin-5-yl)oxy)cyclohexyl)pyridazine-4-carboxamide]
Hepatocyte Stability (mouse) % rem. 120 min [4]: G (% remaining = 50-75%) | hepatocyte CLint at 1 uM [4]: < 8.2 µL/min/1e6 cells | IC50 [2]: < 100 nM | Hepatocyte Stability (human) % rem. 120 min [5]: G (% remaining = 50-75%) | hepatocyte CLint at 1 uM [5]: < 8.2 µL/min/1e6 cells | Microsomal Stability (mouse) % rem. 60 min [3]: H (% remaining = 75-100%) | microsomal CLint at 0.1 uM [3]: < 116 µL/min/mg

O=C(N[C@H]1CC[C@@H](Oc2nc(N3CCOCC3)cc3ncccc23)CC1)c1ccc(C(F)(F)F)o1 [Compound 133, N-((1s,4s)-4-((7-Morpholino-1,6-naphthyridin-5-yl)oxy)cyclohexyl)-5-(trifluoromethyl)furan-2-carboxamide]
EC50 (HCT116 spheroids; [6]): 1000 to 10000 nM | EC50 (HCT116 spheroids; [7]): 1000 to 10000 nM | IC50 [2]: 100 to 1000 nM | Microsomal Stability (mouse) % rem. 60 min [3]: E (% remaining = 0-25%) | microsomal CLint at 0.1 uM [3]: > 116 µL/min/mg

O=C(N[C@H]1CC[C@@H](Oc2nc(N3CCOCC3)cc3ncccc23)CC1)c1cc[nH]c1 [Compound 140, N-((1s,4s)-4-((7-morpholino-1,6-naphthyridin-5-yl)oxy)cyclohexyl)-1H-pyrrole-3-carboxamide]
Hepatocyte Stability (mouse) % rem. 120 min [4]: G (% remaining = 50-75%) | hepatocyte CLint at 1 uM [4]: < 8.2 µL/min/1e6 cells | IC50 [2]: < 100 nM | Hepatocyte Stability (human) % rem. 120 min [5]: H (% remaining = 75-100%) | hepatocyte CLint at 1 uM [5]: < 8.2 µL/min/1e6 cells | Microsomal Stability (mouse) % rem. 60 min [3]: G (% remaining = 50-75%) | microsomal CLint at 0.1 uM [3]: < 116 µL/min/mg

O=C(N[C@H]1CC[C@@H](Oc2nc(N3CCOCC3)cc3ncccc23)CC1)c1ncco1 [Compound 142, N-((1s,4s)-4-((7-morpholino-1,6-naphthyridin-5-yl)oxy)cyclohexyl)oxazole-2-carboxamide]
Hepatocyte Stability (mouse) % rem. 120 min [4]: F (% remaining = 25-50%) | hepatocyte CLint at 1 uM [4]: > 8.2 µL/min/1e6 cells | IC50 [2]: < 100 nM | Hepatocyte Stability (human) % rem. 120 min [5]: H (% remaining = 75-100%) | hepatocyte CLint at 1 uM [5]: < 8.2 µL/min/1e6 cells | Microsomal Stability (mouse) % rem. 60 min [3]: G (% remaining = 50-75%) | microsomal CLint at 0.1 uM [3]: < 116 µL/min/mg

O=C(N[C@H]1CC[C@@H](Oc2nc(N3CCOCC3)cc3ncccc23)CC1)c1c[nH]cn1 [Compound 144, N-((1s,4s)-4-((7-morpholino-1,6-naphthyridin-5-yl)oxy)cyclohexyl)-1H-imidazole-4-carboxamide]
Hepatocyte Stability (mouse) % rem. 120 min [4]: H (% remaining = 75-100%) | hepatocyte CLint at 1 uM [4]: < 8.2 µL/min/1e6 cells | IC50 [2]: < 100 nM | Hepatocyte Stability (human) % rem. 120 min [5]: H (% remaining = 75-100%) | hepatocyte CLint at 1 uM [5]: < 8.2 µL/min/1e6 cells | Microsomal Stability (mouse) % rem. 60 min [3]: G (% remaining = 50-75%) | microsomal CLint at 0.1 uM [3]: < 116 µL/min/mg

CS(=O)(=O)Nc1cnc2cc(N3CCOCC3)nc(O[C@H]3CC[C@@H](n4ccnc4)CC3)c2c1 [Compound 161, N-(5-(((1s,4s)-4-(1H-imidazol-1-yl)cyclohexyl)oxy)-7-morpholino-1,6-naphthyridin-3-yl)methanesulfonamide]
Hepatocyte Stability (mouse) % rem. 120 min [4]: G (% remaining = 50-75%) | hepatocyte CLint at 1 uM [4]: < 8.2 µL/min/1e6 cells | EC50 [1, 8]: 1000 to 10000 nM | EC50 [1, 9]: 1000 to 10000 nM | IC50 [2]: 100 to 1000 nM | Microsomal Stability (mouse) % rem. 60 min [3]: F (% remaining = 25-50%) | microsomal CLint at 0.1 uM [3]: < 116 µL/min/mg

CS(=O)(=O)Nc1cnc2cc(N3CCOCC3)nc(O[C@H]3CC[C@@H](Nc4ncccn4)CC3)c2c1 [Compound 185, N-(7-morpholino-5-(((1s,4s)-4-(pyrimidin-2-ylamino)cyclohexyl)oxy)-1,6-naphthyridin-3-yl)methanesulfonamide]
Hepatocyte Stability (mouse) % rem. 120 min [4]: G (% remaining = 50-75%) | hepatocyte CLint at 1 uM [4]: < 8.2 µL/min/1e6 cells | IC50 [2]: < 100 nM | Hepatocyte Stability (human) % rem. 120 min [5]: H (% remaining = 75-100%) | hepatocyte CLint at 1 uM [5]: < 8.2 µL/min/1e6 cells | Microsomal Stability (mouse) % rem. 60 min [3]: G (% remaining = 50-75%) | microsomal CLint at 0.1 uM [3]: < 116 µL/min/mg
